Reference: US20190054054A1, “Methods reducing or preventing oxidation of high density lipoprotein (HDL)” (Amarin Pharmaceuticals Ireland Limited, priority 2017, published 2019)

Experiments:
[1] = tested on: HUVECs; test: NO and ONOO^− release from HUVECs pretreated with agents, then exposed to oxLDL (Example 11, Objective 1); assay type: cell-based, human; settings: pretreatment 30 min, agents at 10 μM, then oxLDL 11 mg/dL up to 3 hr; for NO / ONOO^−: calcium ionophore 1.0 μM
Protocol: The omega-3 fatty acid, cis-5,8,11,14,17-eicosapentaenoic acid (EPA) and docosahexaenoic acid (DHA) were purchased from Sigma-Aldrich (Saint Louis, Mo.) and solubilized in redistilled ethanol to 11 mM under nitrogen atmosphere. EPA and DHA stock solutions were stored at −20° C. until use.
Human umbilical vein endothelial cells (HUVECs) were obtained from healthy, female donors and isolated into primary, proliferating cell cultures (Clonetics, San Diego, Calif.). […] The confluent cells (4 to 5×10^5 cells/35 mm dish) were plated with minimum essential medium containing 3 mM L-arginine and 0.1 mM BH4 [(6R)-5,6,7,8-tetrahydrobiopterin]. Before experimental use, the cells (from second or third passage) were rinsed twice with Tyrode-HEPES buffer with 1.8 mM CaCl2.
Venous blood was collected from healthy volunteers into vacutainer tubes containing sodium EDTA. […] The LDL subfraction was retained for additional experimentation. Plasma and lipoprotein fractions were maintained at 4° C. and protected from excessive exposure to light. Prior to oxidation experiments, EDTA was removed from the lipoprotein fraction using PD-10 desalting columns (GE Healthcare, Piscataway N.J.). After equilibration of the column with phosphate buffered saline (PBS), 2.5 mL of the lipoprotein fraction was loaded on the column and the flow-through discarded. The lipoprotein was then eluted with 3 mL of PBS. The LDL fractions were further diluted with PBS to obtain a 100 μg/mL apoB100 concentration.
LDL underwent oxidation following the addition of 10 μM CuSO4. To measure oxidation, 100 μL aliquots were removed and combined with 1.0 mL thiobarbituric acid (0.5%), 10 μL trichloroacetic acid (5%), 10 μL BHT (5 mg/mL in methanol), and 10 μL EDTA (5 mM). […] Sample TBARS concentrations were determined spectrophotometrically by measuring sample absorbances against a standard curve derived from the hydrolysis of 1,1,3,3-tetramethoxypropane.
(§1) Concurrent measurements of NO and ONOO^− were performed with tandem electrochemical nanosensors combined into one working unit with a total diameter of 200-400 nm. Their design is based on previously developed and chemically modified carbon-fiber technology. Each of the nanosensors was made by depositing a sensing material on the tip of a carbon fiber (length 4 to 5 μm, diameter 100-200 nm). The fibers were sealed with nonconductive epoxy and electrically connected to copper wires with conductive silver epoxy. Conductive films of polymeric Ni(II) tetrakis (3-methoxy-4-hydroxyphenyl) porphyrin and Mn(III) [2.2] paracyclophanyl-porphyrin were used for the NO and ONOO^− sensors, respectively.
(§2) The amperometric method (with a response time of 0.1 ms) provides a quantitative signal (current) that is directly proportional to changes (from basal levels) in NO or ONOO^− concentration. Amperometric measurements were performed with a Gamry III double-channel potentiostat. Basal NO or ONOO^− levels were measured by differential pulse voltammetry in separate experiments.
All measurements of NO and ONOO^− were performed on intact endothelial cells. The NO/ONOO^− nanosensor module was positioned 5±2 μm from the surface of each individual endothelial cell using a computer-controlled M3301 micromanipulator (x-y-z resolution of 0.2 μm) and microscope (both from World Precision Instruments, Berlin, Germany) fitted with a CD camera. […] Cells will then be treated with calcium ionophore (to maximally stimulate the release of nitrous molecules) and monitored continuously for changes in amperometric current.
Data are presented as mean+S.D. for (N) separate samples or treatment groups. Differences between groups were analyzed using the two-tailed, Student's t-test (for comparisons between only two groups) or ANOVA followed by Dunnett or Student-Newman-Keuls multiple comparisons post-hoc analysis (for comparisons between three or more groups). Alpha error was set to 0.05 in this study.
NO and ONOO^− release were measured following stimulation with calcium.

[2] = tested on: HUVECs exposed to oxLDL; test: NO and ONOO^− release from HUVECs exposed to oxLDL, nanosensors (Example 8); assay type: cell-based, human
Protocol: Human umbilical vein endothelial cells (HUVECs) were isolated into primary cultures from female donors by Clonetics (San Diego, Calif.) and purchased as proliferating cells. All cell culture donors were healthy, with no pregnancy or prenatal complications. […] The confluent cells (4 to 5×10^5 cells/35 mm dish) were placed with minimum essential medium containing 3 mM L-arginine and 0.1 mM BH4 [(6R)-5,6,7,8-tetrahydrobiopterin]. Before experimental use, the cells (from second or third passage) were rinsed twice with Tyrode-HEPES buffer with 1.8 mM CaCl2).
The omega-3 fatty acids (O3FAs) cis-5,8,11,14,17-eicosapentaenoic acid (EPA) and docosahexaenoic acid (DHA) were purchased from Sigma-Aldrich (St. Louis, Mo.) and prepared initially at 11 mM in redistilled ethanol. Primary and secondary O3FA stock solutions were prepared and stored under argon at −20° C.
The oxLDL causes eNOS uncoupling and endothelial dysfunction to reproduce disease-like conditions. 25 Venous blood from healthy normolipidemic volunteers was collected into Na-EDTA (1 mg/mL blood) vacuum tubes after a 12-hour fast. Plasma was immediately separated by centrifugation at 3,000 g for 10 minutes at 4° C.
Tris-NaCl buffer was added to the dialyzed LDL to adjust the protein concentration to 30 mg/mL. A 1-mL aliquot of 20 μM CuSO4 was added to 1 mL of dialyzed normal LDL.
Oxidation was monitored by the use of measurements of TBARS. Briefly, LDL was incubated with thiobarbituric acid (0.5 wt/vol, in H2SO4, 50 mM) for 30 minutes at 100° C. […] TBARS concentration was determined as malondialdehyde (MDA) equivalents with the use of an MDA standard curve.
as §1, with “design was” for “design is”, “[2.2] paracyclophanylporphyrin” for “[2.2] paracyclophanyl-porphyrin”
as §2
All measurements of NO and ONOO^− were performed on intact endothelial cells. The NO/ONOO^− nanosensor module was positioned 5±2 μm from the surface of each individual endothelial cell using a computer-controlled M3301 micromanipulator (x-y-z resolution of 0.2 μm) and microscope (both from World Precision Instruments, Berlin, Germany) fitted with a CD camera.
Endothelial basal media was used for all the treatments. Controls were supplied with an equivalent volume of endothelial basal media.
Data are presented as mean±S.D. for (N) separate samples or experiments. Differences between groups were analyzed using the two-tailed, Student t-test (for comparisons between only two groups) or ANOVA followed by Student-Newman-Keuls multiple comparisons post-hoc analysis (for comparisons between three or more groups). Only differences with probability values less than 0.05 were considered significant.

[3] = oxLDL 20 min, then treatment for 1 hour, EPA 10 μM, ATM 1.0 μM
[4] = treatment 'EPA + oxLDL' (Table 1)

| Compound | NO [1] | ONOO^− [1] | NO [2, 3] | NO/ONOO^− Ratio [2, 3] | ONOO^− [2, 3] | increase in NO release in ECs exposed to oxLDL ([2]; as compared to vehicle, EPA 10 μM, ATM 1.0 μM) | NO [2, 4] | NO/ONOO^− Ratio [2, 4] | ONOO^− [2, 4] | NO/ONOO^− Ratio [1] | NO/ONOO^− Ratio ([1]; listed as Gemfib) | NO/ONOO^− Ratio ([1]; listed as Niacin) |
| --- | --- | --- | --- | --- | --- | --- | --- | --- | --- | --- | --- | --- |
| CC/C=C\C/C=C\C/C=C\C/C=C\C/C=C\C/C=C\CCC(=O)O [DHA, docosahexaenoic acid] | 378 ± 5 | 229 ± 16 | 567 ± 103 nM | 3.39 ± 0.72 | 167 ± 18 | – | – | – | – | – | – | – |
| CC/C=C\C/C=C\C/C=C\C/C=C\C/C=C\CCCC(=O)O [EPA, cis-5,8,11,14,17-eicosapentaenoic acid] | 394 ± 43 | 228 ± 10 | 423 ± 163 nM | 2.24 ± 0.91 | 189 ± 25 | 45% | 663 ± 50 | 2.68 ± 0.28 | 247 ± 17 | – | – | – |
| Cc1ccc(C)c(OCCCC(C)(C)C(=O)O)c1 [gemfibrozil] | 377 ± 24 | 228 ± 11 | 192 ± 34 nM | 0.72 ± 0.16 | 266 ± 34 | – | – | – | – | 1.65±0.13 | 1.65 ± 0.13 | – |
| O=C(O)c1cccnc1 [niacin, nicotinic acid] | 346 ± 17 | 238 ± 20 | 431 ± 100 nM | 2.00 ± 0.52 | 215 ± 25 | – | – | – | – | 1.45±0.14 | – | 1.45 ± 0.14 |
